Experiments:
Assay type in all cases: biochemical
CDK4/CycD3 = CDK4/CycD3 (Homo sapiens, UniProt P11802); assay: Determination of CDK activity (Caliper mobility shift, FAM-P8 peptide): CDK4; details: CDK4/CycD3; read-out: CDK4 enzymatic inhibitory activity (IC50)
Method: (§1) In vitro, CDK (CDK4, CDK6, CDK1, CDK2, CDK7, and CDK9) kinase activity was tested by the following method.
(§2) CDK and raw materials used here: CDK4/CycD3 (Carna, Cat. No 04-105, Lot. No 10CBS-0429 C, GST-CDK4(1-303end)/GST-CycD3(1-292end)); CDK6/cycD3 (Carna, Cat. No 04-107, Lot. No 09CBS-0622K, GST-CDK6(1-326(end))); CDK1/CyclinB (Millipore, Cat. 14-450k, Lot. No 25729U, His-CDK1+GST-cyclinB); CDK2/CycA2 (Carna, Cat. No 04-103, Lot. No 06CBS-3024, GST-CDK2 (1-298(end))); CDK7/CyclinH/MAT1 (Millipore, Cat. No 14-476M, Lot. No WAB0365-A, His-CDK7+GST-MAT1+cyclinH); CDK9/cyclinTl (Millipore, Cat. No 14-685K, Lot. No. 2476163-A, His-CDK9+cyclinTl); Peptide FAM-P8 (GL Biochem, Cat. No. 112396, Lot. No. P100804-XZ112396); ATP (Sigma, Cat. No. A7699-1G, CAS No. 987-65-5); DMSO (Sigma, Cat. No. D2650, Lot. No. 474382); EDTA (Sigma, Cat. No. E5134, CAS No. 60-00-4); 96-well plate (Corning, Cat. No. 3365, Lot. No. 22008026); 384-well plate (Corning, Cat. No. 3573, Lot. No. 12608008); Staurosporine (Sigma, Cat. No. S4400-1MG, Lot. No. 046K4080).
(§3) 1. Prepared 1× Kinase Buffer and Stop Buffer for the Test
2) 1× Kinase Base Buffer (CDK4).
(§4) 1) Diluted the compound to 50 times of the maximum concentration with 100% DMSO. For example, if the desired maximum inhibitory concentration is 10 μM, then a DMSO solution of 500 μM concentration is required.
(§5) 2) Transferred the compound to a 96-well plate and serially diluted the compound from a 100% DMSO solution at a ratio of 30 μm to 60 μm for a total of 10 concentrations gradients. 3) Transferred 100 μm of 100% DMSO to two empty wells as a no compound control and a no enzyme control.
(§6) 4) Prepared intermediate plate and transferred the compound of 10 μm concentration from the original plate to the intermediate plate, and then 90 μm of 1× kinase buffer was added and mixed by shaking for 10 min.
(§7) 4) Preparing intermediate plate and transferred the compound of […] concentration from the original plate to the intermediate plate, and then 90 μm of 1× kinase buffer was added and mixed by shaking for 10 min.
(§8) 1) Transferred 5 μm of each compound from the 96-well intermediate plate to a 384-well plate. For example, A1 of the 96-well plate was transferred to A1 and A2 of the 384-well plate. A2 of the 96-well plate was transferred to A3 and A4 of the 384-well plate, and so on.
(§9) 1) Prepared a 2.5× enzyme solution: added kinase into 1× kinase base buffer.
(§10) 2) Prepared a 2.5× peptide solution: added FAM-labeled peptide and ATP into the 1× kinase base buffer.
(§11) 3) Transferred the 2.5× enzyme solution to the assay plate: Assay plate already contained 5 μm of 10% DMSO and transferred 10 μm of 2.5× enzyme solution to each well.
(§12) 4) Incubated at room temperature for 10 min.
(§13) 5) Transferred the 2.5× peptide solution to the assay plate: added 10 μm of 2.5× peptide solution to each well of the 384-well assay plate.
(§14) 6) Kinase reaction and termination: incubated at 28° C. for a specified period and added 25 μm of stop buffer to stop the reaction.
(§15) 5. Caliper Reading: Collect Data on Caliper.
(§16) 1) Copied conversion data from Caliper program and Converted conversion values to inhibition values: Inhibition rate (%)=(1−OD value of the compound-OD value of the control well)/(OD value of the control empty-OD value of the control well)*100%.
(§17) 2) Fitted the data in XLFit excel add-in version 4.3.1 to give the corresponding IC50 values.

CDK6/cycD3 = CDK6/cycD3 (Homo sapiens, UniProt Q00534); assay: Determination of CDK activity (Caliper mobility shift, FAM-P8 peptide): CDK6; details: CDK6/cycD3; read-out: CDK6 enzymatic inhibitory activity (IC50)
Method: as §1, §2, §3
(§18) 1) 1× Kinase Base Buffer (CDK1, 2, and 6).
as §4, §5, §6, §7, §8, §9, §10, §11, §12, §13, §14, §15, §16, §17

CDK7/CyclinH/MAT1 = CDK7/CyclinH/MAT1 (Homo sapiens, UniProt P50613); assay: Determination of CDK activity (Caliper mobility shift, FAM-P8 peptide): CDK7; details: CDK7/CyclinH/MAT1; read-out: CDK7 enzymatic inhibitory activity (IC50)
Method: as §1, §2, §3
(§19) 3) 1× Kinase Base Buffer (CDK7 and 9).
as §4, §5, §6, §7, §8, §9, §10, §11, §12, §13, §14, §15, §16, §17

CDK1/CyclinB = CDK1/CyclinB (Homo sapiens, UniProt P06493); assay: Determination of CDK activity (Caliper mobility shift, FAM-P8 peptide): CDK1; details: CDK1/CyclinB; read-out: CDK1 enzymatic inhibitory activity (IC50)
Method: as §1, §3, §18, §4, §5
(§20) 1) Transferred 5 μm of each compound from the 96-well intermediate plate to a 384-well plate. […] A2 of the 96-well plate was transferred to A3 and A4 of the 384-well plate, and so on.
as §9, §10, §11, §12, §13, §14, §15, §16, §17

CDK2/CycA2 = CDK2/CycA2 (Homo sapiens, UniProt P24941); assay: Determination of CDK activity (Caliper mobility shift, FAM-P8 peptide): CDK2; details: CDK2/CycA2; read-out: CDK2 enzymatic inhibitory activity (IC50)
Method: as §1, §3, §18, §4, §5, §20, §9, §10, §11, §12, §13, §14, §15, §16, §17

CDK9/cyclinTl = CDK9/cyclinTl (Homo sapiens, UniProt P50750); assay: Determination of CDK activity (Caliper mobility shift, FAM-P8 peptide): CDK9; details: CDK9/cyclinTl; read-out: CDK9 enzymatic inhibitory activity (IC50)
Method: as §1, §3, §19, §4, §5, §20, §9, §10, §11, §12, §13, §14, §15, §16, §17

CDK9/cyclinTl, sequence (P50750 whole entry): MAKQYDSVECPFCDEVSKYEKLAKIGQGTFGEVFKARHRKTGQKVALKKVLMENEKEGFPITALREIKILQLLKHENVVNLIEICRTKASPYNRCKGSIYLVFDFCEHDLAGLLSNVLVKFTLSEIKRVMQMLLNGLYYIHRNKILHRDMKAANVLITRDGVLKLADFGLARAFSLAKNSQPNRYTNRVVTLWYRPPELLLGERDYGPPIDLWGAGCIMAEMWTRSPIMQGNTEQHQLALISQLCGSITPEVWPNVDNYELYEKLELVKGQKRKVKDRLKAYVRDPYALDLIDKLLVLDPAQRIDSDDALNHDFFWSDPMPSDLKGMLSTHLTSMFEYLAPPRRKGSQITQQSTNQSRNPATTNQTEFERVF
CDK9/cyclinTl, sequence (O60563 whole entry partner): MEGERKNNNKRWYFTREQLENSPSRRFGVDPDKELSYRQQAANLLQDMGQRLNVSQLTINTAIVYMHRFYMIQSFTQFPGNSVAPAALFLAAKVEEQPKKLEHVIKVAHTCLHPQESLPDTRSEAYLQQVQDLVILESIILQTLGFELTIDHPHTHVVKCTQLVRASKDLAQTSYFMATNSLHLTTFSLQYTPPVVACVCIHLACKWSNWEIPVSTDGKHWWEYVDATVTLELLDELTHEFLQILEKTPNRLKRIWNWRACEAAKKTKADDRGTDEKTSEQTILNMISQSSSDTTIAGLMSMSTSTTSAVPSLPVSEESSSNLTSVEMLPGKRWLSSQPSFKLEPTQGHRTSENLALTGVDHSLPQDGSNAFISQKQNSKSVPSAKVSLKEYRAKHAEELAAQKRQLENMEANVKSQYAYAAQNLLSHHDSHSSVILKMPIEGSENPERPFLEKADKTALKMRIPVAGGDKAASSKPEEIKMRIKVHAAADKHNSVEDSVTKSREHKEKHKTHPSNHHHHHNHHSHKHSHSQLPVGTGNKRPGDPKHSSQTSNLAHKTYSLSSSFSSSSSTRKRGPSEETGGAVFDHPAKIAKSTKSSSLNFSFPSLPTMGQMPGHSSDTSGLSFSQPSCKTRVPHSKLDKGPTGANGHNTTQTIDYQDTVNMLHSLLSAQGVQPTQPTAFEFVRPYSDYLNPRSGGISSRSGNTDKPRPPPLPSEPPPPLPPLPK
CDK7/CyclinH/MAT1, sequence (P50613 whole entry): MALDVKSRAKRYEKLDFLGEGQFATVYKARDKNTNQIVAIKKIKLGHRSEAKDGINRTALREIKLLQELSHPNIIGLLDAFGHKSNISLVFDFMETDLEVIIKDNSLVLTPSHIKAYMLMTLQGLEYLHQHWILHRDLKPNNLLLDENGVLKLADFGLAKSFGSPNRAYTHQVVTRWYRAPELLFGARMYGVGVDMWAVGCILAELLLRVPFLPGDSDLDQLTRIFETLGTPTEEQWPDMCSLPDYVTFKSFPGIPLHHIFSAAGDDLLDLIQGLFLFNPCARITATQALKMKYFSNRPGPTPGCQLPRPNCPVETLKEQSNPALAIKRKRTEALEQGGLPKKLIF
CDK7/CyclinH/MAT1, sequence (P51946 whole entry partner): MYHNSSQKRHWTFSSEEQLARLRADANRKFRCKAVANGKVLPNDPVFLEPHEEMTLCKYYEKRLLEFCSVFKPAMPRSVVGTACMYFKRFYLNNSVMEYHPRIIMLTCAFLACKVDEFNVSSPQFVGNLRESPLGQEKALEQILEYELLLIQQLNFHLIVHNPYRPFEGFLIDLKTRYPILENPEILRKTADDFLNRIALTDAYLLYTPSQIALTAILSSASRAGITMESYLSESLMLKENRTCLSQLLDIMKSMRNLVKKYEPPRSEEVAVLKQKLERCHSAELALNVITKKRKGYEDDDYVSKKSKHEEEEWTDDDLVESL
CDK7/CyclinH/MAT1, sequence (P51948 whole entry partner): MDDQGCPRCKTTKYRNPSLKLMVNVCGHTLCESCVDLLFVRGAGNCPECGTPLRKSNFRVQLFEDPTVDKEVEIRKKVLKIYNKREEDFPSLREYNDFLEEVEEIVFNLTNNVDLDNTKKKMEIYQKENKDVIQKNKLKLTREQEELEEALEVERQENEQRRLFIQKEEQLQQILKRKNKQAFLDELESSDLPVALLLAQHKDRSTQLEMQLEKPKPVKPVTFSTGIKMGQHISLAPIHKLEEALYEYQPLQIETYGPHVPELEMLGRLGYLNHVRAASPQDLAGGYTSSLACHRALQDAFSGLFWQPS
CDK6/cycD3, sequence (Q00534 whole entry): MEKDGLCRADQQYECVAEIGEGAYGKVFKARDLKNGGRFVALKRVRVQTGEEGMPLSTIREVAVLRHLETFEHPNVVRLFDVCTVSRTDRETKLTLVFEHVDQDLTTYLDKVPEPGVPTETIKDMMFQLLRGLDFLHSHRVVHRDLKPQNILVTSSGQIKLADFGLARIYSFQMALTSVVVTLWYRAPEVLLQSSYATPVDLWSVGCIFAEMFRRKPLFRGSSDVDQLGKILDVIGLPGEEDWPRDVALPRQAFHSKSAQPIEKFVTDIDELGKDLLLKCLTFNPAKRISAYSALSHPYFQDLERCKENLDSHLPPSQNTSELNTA
CDK6/cycD3, sequence (P30281 whole entry partner): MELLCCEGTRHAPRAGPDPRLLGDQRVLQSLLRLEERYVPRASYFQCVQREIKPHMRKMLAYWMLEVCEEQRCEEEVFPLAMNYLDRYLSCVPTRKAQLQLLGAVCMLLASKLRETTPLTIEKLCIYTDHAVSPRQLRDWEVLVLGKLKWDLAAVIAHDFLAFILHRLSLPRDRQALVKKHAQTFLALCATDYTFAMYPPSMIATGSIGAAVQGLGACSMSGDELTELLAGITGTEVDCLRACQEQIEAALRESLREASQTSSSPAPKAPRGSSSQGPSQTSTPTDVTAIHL
CDK1/CyclinB, sequence (P06493 whole entry): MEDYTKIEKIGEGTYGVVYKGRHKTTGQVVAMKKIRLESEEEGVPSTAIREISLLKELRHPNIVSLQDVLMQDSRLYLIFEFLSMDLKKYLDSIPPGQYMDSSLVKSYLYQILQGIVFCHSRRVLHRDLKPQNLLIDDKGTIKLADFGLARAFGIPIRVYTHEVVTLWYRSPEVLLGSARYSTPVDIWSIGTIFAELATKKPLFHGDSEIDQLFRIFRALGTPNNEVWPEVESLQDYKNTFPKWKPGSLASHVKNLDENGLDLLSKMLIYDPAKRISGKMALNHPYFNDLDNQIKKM
CDK1/CyclinB, sequence (P14635 whole entry partner): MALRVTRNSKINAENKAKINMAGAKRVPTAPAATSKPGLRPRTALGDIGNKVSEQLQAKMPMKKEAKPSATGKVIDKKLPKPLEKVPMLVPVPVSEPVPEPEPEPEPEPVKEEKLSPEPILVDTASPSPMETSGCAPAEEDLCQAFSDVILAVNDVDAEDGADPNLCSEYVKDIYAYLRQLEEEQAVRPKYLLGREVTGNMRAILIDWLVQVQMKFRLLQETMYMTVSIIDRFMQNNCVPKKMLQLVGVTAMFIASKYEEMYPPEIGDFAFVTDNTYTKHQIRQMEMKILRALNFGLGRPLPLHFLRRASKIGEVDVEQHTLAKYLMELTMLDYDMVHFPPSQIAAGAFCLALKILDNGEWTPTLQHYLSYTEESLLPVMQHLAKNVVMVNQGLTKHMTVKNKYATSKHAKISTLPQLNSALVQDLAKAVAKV
CDK4/CycD3, sequence (P11802 whole entry): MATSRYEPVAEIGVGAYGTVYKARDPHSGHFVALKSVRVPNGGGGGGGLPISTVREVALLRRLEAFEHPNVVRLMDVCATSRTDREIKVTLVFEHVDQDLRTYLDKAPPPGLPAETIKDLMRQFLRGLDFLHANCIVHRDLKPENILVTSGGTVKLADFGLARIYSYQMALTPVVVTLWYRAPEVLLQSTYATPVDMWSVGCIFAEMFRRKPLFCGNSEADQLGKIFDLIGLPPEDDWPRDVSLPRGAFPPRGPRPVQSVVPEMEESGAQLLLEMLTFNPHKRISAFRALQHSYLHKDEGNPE
CDK4/CycD3, sequence (P30281 whole entry partner): as the sequence (P30281 whole entry partner) above

SMILES	IC50 (CDK4/CycD3) [nM]	IC50 (CDK6/cycD3) [nM]	IC50 (CDK7/CyclinH/MAT1) [nM]	IC50 (CDK1/CyclinB) [nM]	IC50 (CDK2/CycA2) [nM]	IC50 (CDK9/cyclinTl) [nM]
Cc1nc2c(F)cc(-c3nc(Nc4ccc([C@@H](O)C5CCN(C)CC5)cn4)ncc3F)cc2n1C(C)C [Example 50]	< 100	100 to 500	100 to 500	< 100	< 100	100 to 500
CCC(c1ccc(Nc2ncc(F)c(-c3cc(F)c4nc(C)n(C(C)C)c4c3)n2)nc1)N1CCN(CC)CC1 (single isomer, unassigned) [Example 3, (R or S)—N-(5-(1-(4-ethylpiperazin-1-yl)propyl)pyridin-2-yl)-5-fluoro-4-(4-fluoro-1-isopropyl-2-methyl-1H-benzo[d]imidazol-6-yl) pyrimidin-2-amine]	< 100	100 to 500	1000 to 10000	10000 to 100000	10000 to 100000	10000 to 100000
COCCN1CCC([C@@H](C)c2ccc(Nc3ncc(F)c(-c4cc(F)c5nc(C)n(C(C)C)c5c4)n3)nc2)CC1 (single isomer, unassigned) [Example 79]	< 100	< 100	1000 to 10000	100 to 500	< 100	100 to 500
C=C(c1ccc(Nc2ncc(F)c(-c3cc(F)c4nc(C)n(C(C)C)c4c3)n2)nc1)N1CCN(CC)CC1 [Example 36]	100 to 500	100 to 500	1000 to 10000	500 to 1000	500 to 1000	500 to 1000
CC(=C1CCN(C)CC1)c1ccc(Nc2ncc(F)c(-c3cc(F)c4nc(C)n(C(C)C)c4c3)n2)nc1 [Example 62]	< 100	500 to 1000	1000 to 10000	500 to 1000	100 to 500	500 to 1000
Cc1nc2c(F)cc(-c3nc(Nc4ccc([C@@H](C)C5CCN(C)CC5)cn4)ncc3F)cc2n1C(C)C (single isomer, unassigned) [Example 22]	< 100	100 to 500	1000 to 10000	500 to 1000	100 to 500	500 to 1000
Cc1nc2c(F)cc(-c3nc(Nc4ccc([C@@H](C)C5CCN(CC(F)(F)F)CC5)cn4)ncc3F)cc2n1C(C)C [Example 86]	< 100	100 to 500	1000 to 10000	500 to 1000	100 to 500	100 to 500
C=C(c1ccc(Nc2ncc(F)c(-c3cc(F)c4nc(C)n(C(C)C)c4c3)n2)nc1)C1CCN(C)CC1 [Example 35]	< 100	100 to 500	1000 to 10000	100 to 500	< 100	< 100
Cc1nc2c(F)cc(-c3nc(Nc4ccc([C@@H](C)C5CCN(C6CC6)CC5)cn4)ncc3F)cc2n1C(C)C [Example 76]	< 100	100 to 500	1000 to 10000	500 to 1000	100 to 500	100 to 500
Cc1nc2c(F)cc(-c3nc(Nc4ccc(C=C5CCN(CCO)CC5)cn4)ncc3F)cc2n1C(C)C [Example 67]	< 100	< 100	1000 to 10000	100 to 500	< 100	100 to 500
Cc1nc2c(F)cc(-c3nc(Nc4ccc([C@H](C)C5CCN(C(C)C)CC5)cn4)ncc3F)cc2n1C(C)C (single isomer, unassigned) [Example 73]	< 100	< 100	1000 to 10000	100 to 500	< 100	500 to 1000
Cc1nc2c(F)cc(-c3nc(Nc4ccc([C@@H](O)C5CCNCC5)cn4)ncc3F)cc2n1C(C)C [Example 44]	100 to 500	100 to 500	100 to 500	100 to 500	100 to 500	500 to 1000
CC(=C1CCNCC1)c1ccc(Nc2ncc(F)c(-c3cc(F)c4nc(C)n(C(C)C)c4c3)n2)nc1 [Example 61]	< 100	500 to 1000	1000 to 10000	500 to 1000	100 to 500	100 to 500
CC[C@@H](c1ccc(Nc2ncc(F)c(-c3cc(F)c4nc(C)n(C(C)C)c4c3)n2)nc1)C1CCN(CC)CC1 [Example 25]	100 to 500	100 to 500	1000 to 10000	500 to 1000	100 to 500	500 to 1000
CCN1CCC(C(O)c2ccc(Nc3ncc(F)c(-c4cc(F)c5nc(C)n(C(C)C)c5c4)n3)nc2)CC1 (single isomer, unassigned) [Example 41, (R or S)-(1-ethylpiperidin-4-yl)(6-((5-fluoro-4-(4-fluoro-1-isopropyl-2-methyl-1H-benzo [d]imidazol-6-yl)pyrimidin-2-yl)amino)pyridin-3-yl) methanol]	< 100	< 100	500 to 1000	100 to 500	< 100	100 to 500
Cc1nc2c(F)cc(-c3nc(Nc4ccc([C@H](C)C5CCN(CC(F)F)CC5)cn4)ncc3F)cc2n1C(C)C [Example 83]	< 100	< 100	1000 to 10000	100 to 500	< 100	100 to 500
Cc1nc2c(F)cc(-c3nc(Nc4ccc(C(C)C5CCNCC5)cn4)ncc3F)cc2n1C(C)C (single isomer, unassigned) [Example 20, (R or S)-5-fluoro-4-(4-fluoro-1-isopropyl-2-methyl-1H-benzo[d]imidazol-6-yl)-N-(5-(1-(piperidin-4-yl)ethyl)pyridin-2-yl) pyrimidin-2-amine]	< 100	100 to 500	1000 to 10000	500 to 1000	100 to 500	500 to 1000
Cc1nc2c(F)cc(-c3nc(Nc4ccc([C@@H](C)C5CCN(C(C)C)CC5)cn4)ncc3F)cc2n1C(C)C (single isomer, unassigned) [Example 74]	< 100	100 to 500	1000 to 10000	500 to 1000	100 to 500	100 to 500
Cc1nc2c(F)cc(-c3nc(Nc4ccc(C=C5CCN(CC(F)(F)F)CC5)cn4)ncc3F)cc2n1C(C)C [Example 70]	< 100	< 100	1000 to 10000	100 to 500	< 100	100 to 500
